How the values were obtained:
ΔN-VAT = biological target: T1, ΔN-VAT (Thermoplasma acidophilum, UniProt O05209); assay: cryo-EM structure, […] Å; assay type: binding; details: 5 mM ATPγS, 50 mM HEPES pH 7.5, 100 mM NaCl; all twelve NBD1 and NBD2 nucleotide sites; six-fold symmetric stacked-ring state
T1 construct: N-terminal regulatory domain removed (Methods: 181 residues deleted; b5 says first 182), NBD1 + NBD2; N-terminal His6 tag with TEV site, pProEx vector; homohexamer

[1] = biological target: ΔN-VAT (Thermoplasma acidophilum VAT with the regulatory N-terminal domain removed) (Thermoplasma acidophilum) (UniProt O05209); assay: cryo-EM structure; purified ΔN-VAT at ~20 mg/mL, 50 mM HEPES pH 7.5, 100 mM NaCl, 5 mM ATPγS, 0.05% IGEPAL CA-630; six-fold symmetric stacked-ring class (~85% of particle images), C6 symmetry applied, 3.9 Å

T1 sequence (O05209 182-745, stated change not applied): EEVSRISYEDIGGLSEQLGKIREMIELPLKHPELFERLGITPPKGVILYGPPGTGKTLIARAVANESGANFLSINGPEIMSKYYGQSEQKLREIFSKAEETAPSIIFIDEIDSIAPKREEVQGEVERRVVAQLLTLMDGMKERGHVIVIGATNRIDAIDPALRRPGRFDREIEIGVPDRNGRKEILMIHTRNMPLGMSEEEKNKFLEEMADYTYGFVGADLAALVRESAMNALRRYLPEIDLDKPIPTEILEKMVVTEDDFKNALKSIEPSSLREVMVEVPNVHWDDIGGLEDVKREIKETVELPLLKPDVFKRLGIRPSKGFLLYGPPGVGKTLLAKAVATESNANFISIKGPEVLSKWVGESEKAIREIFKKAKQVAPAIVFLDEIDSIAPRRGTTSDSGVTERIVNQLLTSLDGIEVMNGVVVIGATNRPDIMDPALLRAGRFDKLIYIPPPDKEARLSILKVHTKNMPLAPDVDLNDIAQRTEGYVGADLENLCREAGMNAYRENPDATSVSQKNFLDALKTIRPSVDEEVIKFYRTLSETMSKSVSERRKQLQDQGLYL

Row | stoichiometry N [1] | Compound | cryo-EM structure, 3.9 Å (ΔN-VAT)
1 | – | Nc1ncnc2c1ncn2[C@@H]1O[C@H](COP(=O)(O)OP(=O)(O)OP(O)(O)=S)[C@@H](O)[C@H]1O [ATPγS] | Density corresponding to ATPγS is visible in all twelve catalytic sites.
2 | 6 | ΔN-VAT (Thermoplasma acidophilum VAT with the regulatory N-terminal domain removed) (from UniProt O05209 182-745) (enzyme) | –
